Measurements published in the CheMixHub drug solubility set.

Test: xn = mol fraction of the nth substance listed, in the solute-free solvent

O=c1cc(CBr)c2ccccc2[nH]1 + CCO + O
solubility (g/100 g solution)
Details	278.15 K	283.15 K	288.15 K	293.15 K	298.15 K	303.15 K	308.15 K	313.15 K	318.15 K
x2 = 0.04165	0.0134	0.0174	0.023	0.0295	0.038	0.0476	0.0598	0.0753	0.0924
x2 = 0.08908	0.0233	0.0297	0.037	0.0455	0.0569	0.0694	0.0854	0.104	0.123
x2 = 0.1436	0.0341	0.042	0.0509	0.0622	0.075	0.0906	0.106	0.127	0.151
x2 = 0.2068	0.0469	0.0559	0.0666	0.0787	0.0931	0.11	0.128	0.148	0.172
x2 = 0.2812	0.0609	0.0715	0.0837	0.0964	0.112	0.13	0.148	0.168	0.193
x2 = 0.3698	0.0732	0.0845	0.0974	0.111	0.128	0.145	0.163	0.184	0.209
x2 = 0.4772	0.0832	0.0948	0.109	0.123	0.138	0.157	0.176	0.196	0.221
x2 = 0.6101	0.0917	0.103	0.116	0.131	0.147	0.164	0.182	0.202	0.224
x2 = 0.7788	0.0963	0.108	0.12	0.134	0.15	0.165	0.182	0.201	0.219

COC(=O)Nc1nc2ccccc2[nH]1 + CCO + O
solubility (g/100 g solution)
Details	278.15 K	283.15 K	288.15 K	293.15 K	298.15 K	303.15 K	308.15 K	313.15 K	318.15 K
x2 = 0.0417	0.00112	0.00135	0.00165	0.00201	0.00246	0.00289	0.00343	0.00403	0.00475
x2 = 0.08923	0.00223	0.00272	0.0034	0.00411	0.00508	0.00599	0.00715	0.00849	0.01
x2 = 0.1435	0.00325	0.00396	0.00501	0.00619	0.00769	0.0092	0.0111	0.0133	0.0158
x2 = 0.2067	0.00379	0.00471	0.00609	0.00761	0.00949	0.0116	0.0142	0.0172	0.0207
x2 = 0.2813	0.00391	0.00497	0.00649	0.00846	0.0105	0.013	0.0162	0.0199	0.0243
x2 = 0.3701	0.00383	0.0049	0.00658	0.00849	0.011	0.0138	0.0174	0.0219	0.0271
x2 = 0.4762	0.00369	0.0048	0.00651	0.00862	0.0114	0.0146	0.0187	0.0237	0.0298
x2 = 0.6102	0.00358	0.00477	0.00664	0.00884	0.0118	0.0155	0.0202	0.0261	0.0332
x2 = 0.7803	0.0035	0.00477	0.0068	0.0092	0.0125	0.0167	0.0221	0.0289	0.0373

COC(=O)Nc1nc2ccccc2[nH]1 + CO + O
solubility (g/100 g solution)
Details	278.15 K	283.15 K	288.15 K	293.15 K	298.15 K	303.15 K	308.15 K	313.15 K	318.15 K
x2 = 0.05887	0.00186	0.00222	0.00268	0.00321	0.00385	0.00444	0.00519	0.00603	0.00702
x2 = 0.1235	0.00537	0.00636	0.00764	0.00907	0.0107	0.0124	0.0144	0.0166	0.0191
x2 = 0.1941	0.00989	0.0117	0.0141	0.0168	0.0198	0.0228	0.0265	0.0306	0.0353
x2 = 0.2725	0.0136	0.0162	0.0196	0.0233	0.0275	0.032	0.0372	0.0432	0.0499
x2 = 0.36	0.0154	0.0185	0.0226	0.0279	0.0321	0.0378	0.0443	0.0516	0.06
x2 = 0.4579	0.0159	0.0192	0.0239	0.0289	0.0343	0.0409	0.0482	0.0567	0.0663
x2 = 0.5666	0.016	0.0196	0.0245	0.03	0.0357	0.0432	0.0513	0.0609	0.0717
x2 = 0.6924	0.0163	0.0203	0.0258	0.0316	0.0381	0.0463	0.0557	0.0664	0.0791
x2 = 0.8362	0.0175	0.0219	0.0281	0.0347	0.0418	0.0516	0.0624	0.075	0.0897
